Test results as given in patent publication US6335339B1, “Triazine antiviral compounds” (Scriptgen Pharmaceuticals, Inc., priority 1998, dated 2002).

Columns and labels:
HIV derived RRE RNA = test: heterologous hybridization inhibition assay with RRE RNA; format: binding; settings: radiolabeled RRE RNA, rRNA competitor
[1] = neutral red dye uptake cytotoxicity; format: cell-based; settings: human, 2.2.15 cells (confluent cultures), 9 days treatment, read-out: 50% Cell Death CC50
In short: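 Confluent 2.2.15 cultures, same conditions as antiviral assay, treated daily for 9 days with 4 concentrations (3.3-fold dilutions), triplicate wells. 24 hours after the final dose, cells stained 30 minutes with 0.01% neutral red, dye extracted and A510 read; values as % of untreated cultures, CC50 as 50% cell death.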

Row | Compound | RRE + rRNA IC50 (μM) (HIV derived RRE RNA) | also measured
1 | COc1ccccc1C=NNc1nc(Nc2ccc([N+](=O)[O-])cc2)nc(Nc2ccc(C)c(C)c2)n1 [Compound 94] | – | IC50 (HIV derived RRE RNA): 250 µM
2 | CNc1nc(NN=Cc2ccccc2[N+](=O)[O-])nc(Nc2ccccc2)n1 [Compound 65] | inactive | –
3 | Cc1[nH]c2ccccc2c1C=NNc1nc(Nc2ccccc2)nc(N2CCOCC2)n1 [Compound 4] | inactive | –
4 | CC(C)c1ccc(C=NNc2nc(Nc3ccc([N+](=O)[O-])cc3)nc(N3CCCCCC3)n2)cc1 [Compound 56] | inactive | –
5 | CCCCN(CCCC)c1nc(NN=Cc2c[nH]c3ccccc23)nc(Nc2ccc([N+](=O)[O-])cc2)n1 [Compound 39] | inactive | –
6 | C(=NNc1nc(Nc2ccccc2)nc(N2CCCCC2)n1)c1ccccc1 [Compound 3] | inactive | –
7 | Brc1cc2c(cc1C=NNc1nc(NCc3ccccc3)nc(Nc3ccccc3)n1)OCO2 [Compound 43] | inactive | –
8 | Cc1[nH]c2ccccc2c1C=NNc1nc(Nc2ccccc2)nc(N2CCCCC2)n1 [Compound 88] | – | IC50 (HIV derived RRE RNA): 938 µM
9 | CCN(CC)c1nc(N/N=C/c2ccc([N+](=O)[O-])cc2)nc(Nc2cc(C)ccc2C)n1 [Compound 63] | inactive | –
10 | O=[N+]([O-])c1cc(C=NNc2nc(Nc3ccccc3)nc(N3CCOCC3)n2)ccc1Cl [Compound 52] | inactive | –
11 | O=[N+]([O-])c1ccc(Nc2nc(N/N=C/c3cccc(Cl)c3)nc(N3CCCCC3)n2)cc1 [Compound 41] | inactive | –
12 | C(=Cc1ccccc1)C=NNc1nc(NCc2ccccc2)nc(Nc2ccccc2)n1 [Compound 91] | – | IC50 (HIV derived RRE RNA): 800 µM
13 | CC(C)c1ccc(C=NNc2nc(Nc3ccc([N+](=O)[O-])cc3)nc(N3CCCCC3)n2)cc1 [Compound 62] | inactive | –
14 | FC(F)(F)c1cccc(Nc2nc(Nc3cccc(Br)c3)nc(N3CCOCC3)n2)c1 [Compound 38] | inactive | –
15 | CCCCN(CCCC)c1nc(NN=C(C)c2ccccc2)nc(Nc2ccc([N+](=O)[O-])cc2)n1 [Compound 74] | inactive | –
16 | Cc1ccc(Nc2nc(NN=Cc3ccc(Cl)cc3)nc(Nc3ccccc3)n2)c(C)c1 [Compound 42] | inactive | –
17 | Cc1ccc(Nc2nc(NN=Cc3cccc(Br)c3)nc(Nc3ccccc3)n2)c(C)c1 [Compound 49] | inactive | –
18 | CC(C)(C)Nc1nc(NCc2ccccc2)nc(NN=Cc2ccc3c(c2)OCO3)n1 [Compound 67] | inactive | –
19 | CCN(CC)c1nc(NN=Cc2cc([N+](=O)[O-])ccc2OC)nc(Nc2cc(C)ccc2C)n1 [Compound 85] | inactive | –
20 | CCN(CC)c1nc(NN=Cc2ccc(F)cc2)nc(Nc2ccc([N+](=O)[O-])cc2)n1 [Compound 68] | inactive | –
21 | O=[N+]([O-])c1ccc(C=NNc2nc(Nc3ccccc3)nc(NC3CCCCC3)n2)cc1 [Compound 46] | inactive | –
22 | Cc1[nH]c2ccccc2c1C=NNc1nc(NCc2ccccc2)nc(Nc2ccccc2)n1 [Compound 50] | inactive | –
23 | COc1ccc(C=NNc2nc(Nc3ccc([N+](=O)[O-])cc3)nc(N3CCCCC3)n2)cc1 [Compound 44] | inactive | –
24 | Oc1ccc(Nc2nc(Nc3cccc(C(F)(F)F)c3)nc(N3CCOCC3)n2)cc1 [Compound 53] | inactive | –
25 | CC(C)(C)Nc1nc(NCc2ccccc2)nc(N/N=C/c2ccccc2F)n1 [Compound 93, 2-fluorobenzaldehyde N-[4-(benzylamino)-6-(tert-butylamino)-1,3,5-triazin-2-yl]hydrazone] | Inactive | CC50 at 9 days [1]: 54 µM
26 | Cc1ccc(Nc2nc(NN=Cc3ccc4c(c3)OCO4)nc(Nc3ccccc3)n2)c(C)c1 [Compound 51] | inactive | –
27 | Cc1ccc(Nc2nc(NN=Cc3ccc(Cl)c(Cl)c3)nc(Nc3ccccc3)n2)c(C)c1 [Compound 40] | inactive | –
28 | COc1ccc(C=NNc2nc(Nc3ccccc3)nc(Nc3ccc(C)cc3C)n2)c(OC)c1 [Compound 61] | inactive | –
